Data reported in patent US20240309043A1, “THERAPEUTICALLY ACTIVE STEROIDAL DERIVATIVES” (Organon R&D Finland Ltd., priority 2017, published 2024).

Assays:
Type in all cases: biochemical
[1] = target: T1, recombinant human 17β-HSD1 (Homo sapiens, UniProt P14061); assay: Inhibition of recombinant human 17β-HSD1; conditions: inhibitor 100 nM; 30 nM estrone, 1 mM NADPH, 30 min RT
T1 construct: made in house; host or cells: Sd9 (Sf9) insect cells, baculovirus (Bac to Bac Expression System)
T1 sequence (P14061 1-328): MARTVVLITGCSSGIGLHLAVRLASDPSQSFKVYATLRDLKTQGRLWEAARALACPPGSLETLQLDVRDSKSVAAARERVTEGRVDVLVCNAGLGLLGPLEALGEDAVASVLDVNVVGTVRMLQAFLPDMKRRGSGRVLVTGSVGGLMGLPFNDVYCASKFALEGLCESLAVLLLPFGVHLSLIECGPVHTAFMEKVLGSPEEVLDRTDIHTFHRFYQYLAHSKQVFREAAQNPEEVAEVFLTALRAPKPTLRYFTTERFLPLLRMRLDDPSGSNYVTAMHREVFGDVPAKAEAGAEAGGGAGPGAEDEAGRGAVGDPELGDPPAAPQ
Procedure: 17β-HSD1 production and isolation: Recombinant baculovirus was generated by the “Bac to Bac Expression System” (Invitrogen). Recombinant bacmid was transfected to Sd9 insect cells using “Cellfectin Reagent” (Invitrogen). 60 h later cells were harvested; the microsomal fraction was isolated as described by Puranen, T. J., Poutanen, M. H., Peltoketo, H. E., Vihko, P. T. and Vihko, R. K. (1994) Site-directed mutagenesis of the putative active site of human 17 β-hydroxysteroid dehydrogenase type 1. Biochem. J. 304: 289-293. Aliquots were stored frozen until determination of enzymatic activity.
Assay—Inhibition of recombinant human 17β-HSD1: Recombinant protein (1 μg/ml) was incubated in 20 mM KH2PO4 pH 7.4 with 30 nM estrone (including 800 000 cpm/ml of ^3H-estrone) and 1 mM NADPH for 30 min at RT, in the presence of the potential inhibitor at concentrations 1 μM or 0.1 μM. Inhibitor stock solutions were prepared in DMSO. Final concentration of DMSO was adjusted to 1% in all samples. The enzyme reaction was stopped by addition of 10% trichloroacetic acid (final concentration). Samples were centrifuged in a microtiter plate at 4000 rpm for 10 min. Supernatants were applied to reverse phase HPLC on a Waters Symmetry C18 column, equipped with a Waters Sentry Guard column. Isocratic HPLC runs were performed at RT at a flow rate of 1 ml/min in acetonitrile:water 48:52 as running solvent. Radioactivity was monitored in the eluate by a Scintillation Analyzer. Total radioactivity for estrone and estradiol were determined in each sample and percent conversion of estrone to estradiol was calculated according to the following formula:
(§1) [formula] Percent inhibition was calculated flowingly: % inhibition=100−% conversion

[2] = target: T2, recombinant human 17β-HSD2 (Homo sapiens, UniProt P37059); assay: Inhibition of recombinant human 17β-HSD2; conditions: inhibitor 1 μM; 50 nM estradiol, 1 mM NADH, 30 min RT
T2 construct: made in house; host or cells: Sd9 (Sf9) insect cells, baculovirus (Bac to Bac Expression System)
T2 sequence (P37059 1-387): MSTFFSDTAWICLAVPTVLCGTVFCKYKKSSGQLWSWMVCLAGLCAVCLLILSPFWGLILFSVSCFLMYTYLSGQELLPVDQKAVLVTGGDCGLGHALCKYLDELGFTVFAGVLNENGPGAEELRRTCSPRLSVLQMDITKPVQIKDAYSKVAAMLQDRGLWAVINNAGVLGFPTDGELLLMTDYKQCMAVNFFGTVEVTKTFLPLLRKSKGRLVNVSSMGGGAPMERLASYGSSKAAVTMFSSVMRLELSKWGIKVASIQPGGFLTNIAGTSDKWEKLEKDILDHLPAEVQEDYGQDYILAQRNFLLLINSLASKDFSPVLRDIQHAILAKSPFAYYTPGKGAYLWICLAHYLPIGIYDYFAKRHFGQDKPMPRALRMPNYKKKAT
Procedure: 17β-HSD2 production and isolation: Similarly to 17β-HSD1 the Recombinant baculovirus was generated by the “Bac to Bac Expression System” (Invitrogen). Recombinant bacmid was transfected to Sd9 insect cells using “Cellfectin Reagent” (Invitrogen). 60 h later cells were harvested and supernatant were fractionated by the following protocol: • cells were dissolved into 40 ml of A-buffer (40 mM TRIS, pH 8.0, 20% glycerol, 20 μM NAD, 0.4 mM PMSF, 150 mM NaCl, 0.5% dodecyl-β-maltoside+protease inhibitor cocktail) • cells were sonicated • lysate was incubated on ice for 15 min • lysate was centrifuged 5000 rpm 15 min, +4° C. • centrifugation of the supernatant 180 000 g 30 min, +4° C. • pellet was dissolved into 8 ml of A-buffer • not resuspended material was removed by centrifugation 5000 rpm min, +4° C. • the clear supernatant was divided into 100 μl aliquots and were stored frozen until determination of enzymatic activity.
The amount of 17β-HSD2 was analysed by immunoblotting and total protein concentration of each extract batch was determined.
Assay—Inhibition of recombinant human 17β-HSD2: Recombinant protein (4 μg/ml) was incubated in 20 mM KH2PO4 pH 8.5 with 50 nM estradiol (including 800 000 cpm/ml of ^3H-estradiol) and 1 mM NADH for 30 min at RT, in the presence of the potential inhibitor at concentrations 1 μM or 0.1 μM. Inhibitor stock solutions were prepared in DMSO. Final concentration of DMSO was adjusted to 1% in all samples. The enzyme reaction was stopped by addition of 10% trichloroacetic acid (final concentration). Samples were centrifuged in a microtiter plate at 4000 rpm for 10 min. Supernatants were applied to reverse phase HPLC on a Waters Symmetry C18 column, equipped with a Waters Sentry Guard column. Isocratic HPLC runs were performed at RT at a flow rate of 1 ml/min in acetonitrile:water 48:52 as running solvent. Radioactivity was monitored in the eluate by a Scintillation Analyzer. Total radioactivity for estrone and estradiol were determined in each sample and percent conversion of estradiol to estrone was calculated according to the following formula:
as §1

[3] = test system: HSD1 enzyme that is expressed in rabbit placenta tissue; assay: Inhibition of E1 to E2 conversion in rabbit placenta tissue homogenate; conditions: inhibitor 100 nM, 30 nM estrone, 30 min
Procedure: The assay is based on an enzymatic reaction where HSD1 enzyme that is expressed in rabbit placenta tissue converts its natural substance estrone (E1) to estradiol (E2) in the presence of a co-factor β-NADPH.
Homogenization of rabbit placenta tissue: Weight a piece of the frozen tissue into a Precellys ck28 bead tube. Add buffer solution (20 mM KH2PO4 with 1 mM EDTA, pH 7,4) in 1:2 ratio (e.g. 300 mg of tissue:600 μl reaction buffer solution). Insert the bead tubes to homogenizer and homogenize 2×30 s. 6000 rpm. Centrifugated 5 min., 2600 rpm at +4° C. and collect supernatant. Aliquots of homogenate are stored in −80° C.
Assay—Inhibition of E1 to E2 conversion in rabbit placenta tissue: The reaction takes place in a buffer solution (20 mM KH2PO4 with 1 mM EDTA, pH 7,4), including appropriate amount of rabbit placenta homogenate, co-factor (1 mM β-NADPH), Substrate (30 nM estrone), labelled substrate as tracer (5 nM [^3H]-estrone). During a 30-minute incubation part of the estrone is converted to estradiol. The reaction is stopped by lowering the pH to 1 with 10% trichloro acetic acid (TCA). The substrate and conversion products are analyzed by HPLC and a Scintillation counter analyzer. Total radioactivity for estrone and estradiol were determined in each sample and percent conversion of estrone to estradiol was calculated according to the following formula:
Percent inhibition was calculated flowingly: % inhibition=100−% conversion.

With `C[C@]12CCC3c4ccc(Cl)cc4CCC3C1[C@H](CCC(=O)Nc1ccc(F)cn1)C/C2=N\O` (stereo partly drawn) [Compound 58, 3-((13S,15R,E)-3-chloro-17-(hydroxyimino)-13-methyl-7,8,9,11,12,13,14,15,16,17-decahydro-6H-cyclopenta[a]phenanthren-15-yl)-N-(5-fluoropyridin-2-yl)propanamide] the inhibition at 0.1 µM [1] was 60%, the inhibition at 1 µM [2] was 18% and the “Rabbit placenta inhibition % @100 nM” value [3] was 1%.

In the case of `Cc1cccnc1NC(=O)CC[C@@H]1C/C(=N\O)[C@@]2(C)CCC3c4ccc(Cl)cc4CCC3C12` (stereo partly drawn) [Compound 60, 3-((13S,15R,E)-3-chloro-17-(hydroxyimino)-13-methyl-7,8,9,11,12,13,14,15,16,17-decahydro-6H-cyclopenta[a]phenanthren-15-yl)-N-(3-methylpyridin-2-yl)propanamide], the inhibition at 0.1 µM [1] is reported as 38%, the inhibition at 1 µM [2] is reported as 2% and the “Rabbit placenta inhibition % @100 nM” value [3] is reported as 4%.

`C[C@]12CCC3c4ccc(Cl)cc4CCC3C1[C@H](CCC(=O)Nc1ncccc1F)C/C2=N\O` (stereo partly drawn) [Compound 62, 3-((13S,15R,E)-3-chloro-17-(hydroxyimino)-13-methyl-7,8,9,11,12,13,14,15,16,17-decahydro-6H-cyclopenta[a]phenanthren-15-yl)-N-(3-fluoropyridin-2-yl)propanamide] was tested, and the inhibition at 0.1 µM [1] was 45%, the “HSD2 inhibition % @1 μM” value [2] was −8% and the “Rabbit placenta inhibition % @100 nM” value [3] was 3%.

For `Cc1cnc(NC(=O)CC[C@@H]2C/C(=N\O)[C@@]3(C)CCC4c5ccc(Cl)cc5CCC4C23)o1` (stereo partly drawn) [Compound 64, 3-((13S,15R,E)-3-chloro-17-(hydroxyimino)-13-methyl-7,8,9,11,12,13,14,15,16,17-decahydro-6H-cyclopenta[a]phenanthren-15-yl)-N-(5-methyloxazol-2-yl)propanamide], the inhibition at 0.1 µM [1] was 26%, the inhibition at 1 µM [2] was 0% and the “Rabbit placenta inhibition % @100 nM” value [3] was 5%.

`COc1ccc(NC(=O)CC[C@@H]2C/C(=N\O)[C@@]3(C)CCC4c5ccc(Cl)cc5CCC4C23)nc1` (stereo partly drawn) [Compound 66, 3-((13S,15R,E)-3-chloro-17-(hydroxyimino)-13-methyl-7,8,9,11,12,13,14,15,16,17-decahydro-6H-cyclopenta[a]phenanthren-15-yl)-N-(5-methoxypyridin-2-yl)propanamide] was tested, and the inhibition at 0.1 µM [1] was 72%, the inhibition at 1 µM [2] was 23% and the “Rabbit placenta inhibition % @100 nM” value [3] was 14%.

With `C[C@]12CCC3c4ccc(Cl)cc4CCC3C1[C@H](CCC(=O)Nc1ccccn1)C/C2=N\O` (stereo partly drawn) [Compound 68, 3-((13S,15R,E)-3-chloro-17-(hydroxyimino)-13-methyl-7,8,9,11,12,13,14,15,16,17-decahydro-6H-cyclopenta[a]phenanthren-15-yl)-N-(pyridin-2-yl)propanamide] the inhibition at 0.1 µM [1] was 67%, the inhibition at 1 µM [2] was 3% and the “Rabbit placenta inhibition % @100 nM” value [3] was 12%.

In the case of `Cc1ccnc(NC(=O)CC[C@@H]2C/C(=N\O)[C@@]3(C)CCC4c5ccc(Cl)cc5CCC4C23)c1` (stereo partly drawn) [Compound 70, 3-((13S,15R,E)-3-chloro-17-(hydroxyimino)-13-methyl-7,8,9,11,12,13,14,15,16,17-decahydro-6H-cyclopenta[a]phenanthren-15-yl)-N-(4-methylpyridin-2-yl)propanamide], the inhibition at 0.1 µM [1] is reported as 81%, the inhibition at 1 µM [2] is reported as 4% and the “Rabbit placenta inhibition % @100 nM” value [3] is reported as −7%.

With `C[C@]12CCC3c4ccc(Cl)cc4CCC3C1[C@H](CCC(=O)Nc1ccc(C#N)cn1)C/C2=N\O` (stereo partly drawn) [Compound 72, 3-((13S,15R,E)-3-chloro-17-(hydroxyimino)-13-methyl-7,8,9,11,12,13,14,15,16,17-decahydro-6H-cyclopenta[a]phenanthren-15-yl)-N-(5-cyanopyridin-2-yl)propanamide] the inhibition at 0.1 µM [1] was 52%, the inhibition at 1 µM [2] was 7% and the “Rabbit placenta inhibition % @100 nM” value [3] was 26%.

For `C[C@]12CCC3c4ccc(Cl)cc4CCC3C1[C@H](CCC(=O)Nc1cnccn1)C/C2=N\O` (stereo partly drawn) [Compound 74, 3-((13S,15R,E)-3-chloro-17-(hydroxyimino)-13-methyl-7,8,9,11,12,13,14,15,16,17-decahydro-6H-cyclopenta[a]phenanthren-15-yl)-N-(pyrazin-2-yl)propanamide], the inhibition at 0.1 µM [1] was 27%, the inhibition at 1 µM [2] was 2% and the “Rabbit placenta inhibition % @100 nM” value [3] was 13%.

`Cc1ccc(NC(=O)CC[C@@H]2C/C(=N\O)[C@@]3(C)CCC4c5ccc(Cl)cc5CCC4C23)nn1` (stereo partly drawn) [Compound 76, 3-((13S,15R,E)-3-chloro-17-(hydroxyimino)-13-methyl-7,8,9,11,12,13,14,15,16,17-decahydro-6H-cyclopenta[a]phenanthren-15-yl)-N-(6-methylpyridazin-3-yl)propanamide] was tested, and the inhibition at 0.1 µM [1] was 33%, the inhibition at 1 µM [2] was 4% and the “Rabbit placenta inhibition % @100 nM” value [3] was 56%.

In the case of `C[C@]12CCC3c4ccc(Cl)cc4CCC3C1[C@H](CCC(=O)Nc1ccc(N3CCOCC3)cn1)C/C2=N\O` (stereo partly drawn) [Compound 78, 3-((13S,15R,E)-3-chloro-17-(hydroxyimino)-13-methyl-7,8,9,11,12,13,14,15,16,17-decahydro-6H-cyclopenta[a]phenanthren-15-yl)-N-(5-morpholinopyridin-2-yl)propanamide], the inhibition at 0.1 µM [1] is reported as 76%, the inhibition at 1 µM [2] is reported as 1% and the “Rabbit placenta inhibition % @100 nM” value [3] is reported as 37%.
